Test results from patent US7030242B2, “Selective inhibition of aggrecanase in osteoarthritis treatment” (Pfizer Inc, priority 1999, dated 2006).
Where two headings read alike, the source gives them in different places.

Key:
[1] = biological target: T1, Human recombinant collagenase-1 (Homo sapiens, UniProt P03956); experiment: Inhibition of human collagenase-1 (recombinant collagenase-1 assay); type: biochemical; conditions: Table 2, read-out: MMP-1 (IC50 class)
T1 sequence (P03956 100-469): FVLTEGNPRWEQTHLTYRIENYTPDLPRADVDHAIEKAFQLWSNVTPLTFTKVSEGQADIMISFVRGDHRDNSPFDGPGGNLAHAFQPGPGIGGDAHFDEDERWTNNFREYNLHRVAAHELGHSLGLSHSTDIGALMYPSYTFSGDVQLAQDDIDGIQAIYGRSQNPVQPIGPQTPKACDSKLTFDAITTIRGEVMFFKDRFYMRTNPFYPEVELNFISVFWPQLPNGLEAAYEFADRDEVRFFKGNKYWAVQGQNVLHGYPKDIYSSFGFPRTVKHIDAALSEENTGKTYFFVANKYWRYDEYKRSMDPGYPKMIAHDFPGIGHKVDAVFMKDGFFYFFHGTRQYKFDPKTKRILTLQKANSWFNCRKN
Procedure: Inhibition of Human Collagenase-1 (Recombinant Collagenase-1 Assay)
This assay is used in the invention to measure the potency (IC50s) of compounds for collagenase-1.
Human recombinant collagenase-1 is activated with trypsin. The amount of trypsin is optimized for each lot of collagenase-1, but a typical reaction uses the following ratio: 5 mg trypsin per 100 mg of collagenase.
Stock solutions (10 mM) of inhibitors are made up in dimethylsulfoxide and then diluted using the following scheme: • 10 mM------>120 μM------>12 μM------>1.2 μM------>0.12 μM
Twenty-five microliters of each concentration is then added in triplicate to appropriate wells of a 96 well microfluor plate. The final concentration of inhibitor will be a 1:4 dilution after addition of enzyme and substrate. Positive controls (enzyme, no inhibitor) are set up in wells D7–D12 and negative controls (no enzyme, no inhibitors) are set in wells D1–D6.
Collagenase-1 is diluted to 240 ng/ml and […] is then added to appropriate wells of the microfluor plate. Final concentration of collagenase in the assay is 60 ng/ml.
Substrate (DNP-Pro-Cha-Gly-Cys(Me)-His-Ala-Lys(NMA)-NH2) is made as a 5 mM stock in dimethylsulfoxide and then diluted to 20 μM in assay buffer. The assay is initiated by the addition of […] substrate per well of the microfluor plate to give a final concentration of 10 μM.
Fluorescence readings (360 nm excitation, 460 nm emission) are taken at time 0 and then at about 20 minute intervals. The assay is conducted at a temperature of about 20 to about 25° C., preferably about 23° C. with a typical assay time of about 3 hours.
Fluorescence versus time is then plotted for both the blank and collagenase containing samples (data from triplicate determinations is averaged). A time point that provides a good signal (at least five fold over the blank) and that is on a linear part of the curve (usually around 120 minutes) is chosen to determine IC50 values. The zero time is used as a blank for each compound at each concentration and these values are subtracted from the 120 minute data. Data is plotted as inhibitor concentration versus % control (inhibitor fluorescence divided by fluorescence of collagenase alone ×100).

aggrecanase = experiment: Aggrecanase chondrocyte assay (35S-proteoglycan release, IL-1 stimulated); type: cell-based, porcine
Procedure: Aggrecanase Chondrocyte Assay
This assay is used in the invention to measure the potency (IC50s) of compounds for aggrecanase.
Primary porcine chondrocytes from articular joint cartilage are isolated by sequential trypsin and collagenase digestion followed by collagenase digestion overnight and are plated at 2×10^5 cells per well into 48 well plates with 5 μCi/ml ^35S (1000 Ci/mmol) sulphur in type I collagen coated plates. Cells are allowed to incorporate label into their proteoglycan matrix (approximately 1 week) at 37° C., under an atmosphere of 5% CO2.
The night before initiating the assay, chondrocyte monolayers are washed two times in DMEM/1% PSF/G and then allowed to incubate in fresh DMEM/1% FBS overnight.
The following morning chondrocytes are washed once in DMEM/1% PSF/G. The final wash is allowed to sit on the plates in the incubator while making dilutions. Media and dilutions can be made as described in the Table I below.
Plates are labeled and only the interior 24 wells of the plate are used. On one of the plates, several columns are designated as IL-1 (no drug) and Control (no IL-1, no drug). These control columns are periodically counted to monitor 35S-proteoglycan release. Control and IL-1 media are added to wells (450 μl) followed by compound (50 μl) so as to initiate the assay. Plates are incubated at 37° C., with a 5% CO2 atmosphere.
At 40–50% release (when CPM from IL-1 media is 4–5 times control media) as assessed by liquid scintillation counting (LSC) of media samples, the assay is terminated (about 9 to about 12 hours). Media is removed from all wells and placed in scintillation tubes. Scintillate is added and radioactive counts are acquired (LSC). To solubilize cell layers, 500 μL of papain digestion buffer (0.2 M Tris, pH 7.0, 5 mM EDTA, 5 mM DTT, and 1 mg/ml papain) is added to each well. Plates with digestion solution are incubated at 60° C. overnight. The cell layer is removed from the plates the next day and placed in scintillation tubes. Scintillate is then added, and samples counted (LSC).
The percent of released counts from the total present in each well is determined. Averages of the triplicates are made with control background subtracted from each well.

TACE = biological target: T2, TACE (Homo sapiens, UniProt P78536); experiment: Inhibition of soluble TNF-α production (TACE whole blood assay); type: cell-based; conditions: Table 2, read-out: TACE (IC50 class)
T2 construct: Human mononuclear cells are isolated from anti-coagulated human blood; endogenous in cells; host or cells: human peripheral blood mononuclear cells, LPS stimulated
T2 sequence (P78536 215-824): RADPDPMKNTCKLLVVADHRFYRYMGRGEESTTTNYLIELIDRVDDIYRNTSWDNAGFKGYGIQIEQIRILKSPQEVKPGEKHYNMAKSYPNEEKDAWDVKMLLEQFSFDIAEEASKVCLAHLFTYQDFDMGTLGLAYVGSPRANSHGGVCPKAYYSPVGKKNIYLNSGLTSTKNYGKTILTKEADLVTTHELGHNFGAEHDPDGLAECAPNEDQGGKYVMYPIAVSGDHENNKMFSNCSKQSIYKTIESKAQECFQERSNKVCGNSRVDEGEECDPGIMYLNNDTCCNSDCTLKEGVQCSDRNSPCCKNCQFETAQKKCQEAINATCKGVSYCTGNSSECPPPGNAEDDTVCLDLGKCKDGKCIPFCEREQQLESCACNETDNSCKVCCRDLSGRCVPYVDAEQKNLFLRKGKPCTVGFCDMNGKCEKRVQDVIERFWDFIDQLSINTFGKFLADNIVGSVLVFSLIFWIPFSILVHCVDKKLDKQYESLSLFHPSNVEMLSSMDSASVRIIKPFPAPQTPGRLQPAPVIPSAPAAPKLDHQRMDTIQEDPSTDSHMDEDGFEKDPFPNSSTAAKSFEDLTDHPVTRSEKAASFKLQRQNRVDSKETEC
Procedure: Inhibition of Soluble TNF-α Production (TACE Whole Blood Assay)
This assay is used in the invention to measure the potency (IC50s) of compounds for TACE.
Human mononuclear cells are isolated from anti-coagulated human blood using a one-step Ficoll-hypaque separation technique. (2) The mononuclear cells are washed three times in Hanks balanced salt solution (HBSS) with divalent cations and re-suspended to a density of 2×10^6/ml in HBSS containing 1% BSA.
180 μL of the cell suspension was aliquoted into flat bottom 96 well plates (Costar). Additions of compounds and LPS (100 ng/ml final concentration) gives a final volume of 200 μL. All conditions are performed in triplicate. After about a four hour incubation at about 37° C. in an humidified CO2 incubator, plates are removed and centrifuged (about 10 minutes at approximately 250×g) and the supernatants removed and assayed for TNF-α using the R&D ELISA Kit.

[2] = biological target: Human recombinant collagenase-3 (Homo sapiens, UniProt P45452); experiment: Inhibition of human collagenase-3 (recombinant collagenase-3 assay); type: biochemical
Procedure: Inhibition of Human Collagenase-3 (Recombinant Collagenase-3 Assay)
This assay is used in the invention to measure the potency (IC50s) of compounds for collagenase-3.
Human recombinant collagenase-3 is activated with 2 mM APMA (p-aminophenyl mercuric acetate) for about 2.0 hours, at about 37° C. and is diluted to about 240 ng/ml in assay buffer (50 mM Tris, pH 7.5, 200 mM sodium chloride, 5 mM calcium chloride, […], 0.02% BRIJ-35). Twenty-five micro-liters of diluted enzyme is added per well of a 96 well microfluor plate.
The final concentrations in the assay are 30 μM, 3 μM, 0.3 μM, and 0.03 μM.
Fluorescence readings (360 nm excitation; 450 nm emission) are taken at time 0 and about every 5 minutes for about 1 hour.
Positive controls and negative controls are set up in triplicate as outlined in the collagenase-1 assay. IC50's are determined as per inhibition of human collagenase (collagenase-1).

[3] = Table 2, aggrecanase chondrocyte assay, read-out: Agg (aggrecanase IC50 class)
[4] = Table 2, recombinant collagenase-3 assay, read-out: MMP-13 (IC50 class)

IC50 [1] [nM] | IC50 (aggrecanase; [3]) [nM] | IC50 (TACE) [nM] | IC50 [2, 4] [nM] | IC50 ([2]; human recombinant enzyme, fluorogenic peptide substrate, read-out: Collagenase-3 IC50) [nM] | IC50 (aggrecanase; primary porcine chondrocytes, IL-1 (5 ng/ml), read-out: Aggrecanase IC50) [nM] | Compound
> 1000 | < 10 | < 10000 | 20 to 200 |  |  | CCc1ccccc1COc1ccc(S(=O)(=O)N2CCN(C(=O)NC)[C@@H](C)[C@@H]2C(=O)NO)cc1 [(2R,3S) 4-[4-(2-ethyl-benzyloxy)-benzenesulfonyl]-3-methyl-4-carboxylic acidmethylamide-piperazine-2-carboxylic acidhydroxyamide]
 |  |  |  | 1 |  | CNC(=O)[C@H](Cc1ccc(OC)cc1)NC(=O)[C@@H](CC(=O)NO)CC(C)C [reference compound]
200 to 1000 | 10 to 20 | 10000 to 20000 | < 10 |  |  | CC1(C)C[C@@H](O)CN(S(=O)(=O)c2ccc(OCc3cc(Cl)ccc3F)cc2)[C@H]1C(=O)NO [(2R,5R) 1-[4-(2-fluoro-5-chloro-benzyloxy)-benzenesulfonyl]-5-hydroxy-3,3-dimethyl-piperidine-2-carboxylic acidhydroxyamide]
20 to 200 | < 10 | 10000 to 20000 | < 10 |  |  | CC1(C)C[C@@H](O)CN(S(=O)(=O)c2ccc(OCc3ccc(F)cc3)cc2)[C@H]1C(=O)NO [(2R,5R) 1-[4-(4-fluoro-benzyloxy)-benzenesulfonyl]-5-hydroxy-3,3-dimethyl-piperidine-2-carboxylic acidhydroxyamide]
200 to 1000 | < 10 | 20000 to 40000 | < 10 |  |  | CC1(C)C[C@@H](O)CN(S(=O)(=O)c2ccc(OCc3ccc(Cl)cc3Cl)cc2)[C@H]1C(=O)NO [(2R,5R) 1-[4-(2,4-dichloro-benzyloxy)-benzenesulfonyl]-5-hydroxy-3,3-dimethyl-piperidine-2-carboxylic acidhydroxyamide]
200 to 1000 | 10 to 20 | < 10000 | < 10 |  |  | CC1(C)C[C@@H](O)CN(S(=O)(=O)c2ccc(OCc3ccccc3Br)cc2)[C@H]1C(=O)NO [(2R,5R) 1-[4-(2-bromo-benzyloxy)-benzenesulfonyl]-5-hydroxy-3,3-dimethyl-piperidine-2-carboxylic acidhydroxyamide]
 |  |  |  |  | 53.5 | NS(=O)(=O)c1ccc(CCNC(=O)C(CC2CCCCC2)NC(=O)C(CCCc2ccccc2)CC(=O)NO)cc1 (stereo not shown) [reference compound]

The next lines start with the molecule.

Compound | IC50 [1] [nM] | IC50 (aggrecanase; [3]) [nM] | IC50 (TACE) [nM] | IC50 [2, 4] [nM] | IC50 ([2]; human recombinant enzyme, fluorogenic peptide substrate, read-out: Collagenase-3 IC50) [nM] | IC50 (aggrecanase; primary porcine chondrocytes, IL-1 (5 ng/ml), read-out: Aggrecanase IC50) [nM]
C[C@@]1(O)CCCN(S(=O)(=O)c2ccc(OCc3ccc(F)cc3Cl)cc2)[C@H]1C(=O)NO [(2R,3R) 1-[4-(2-chloro-4-fluoro-benzyloxy)-benzenesulfonyl]-3-hydroxy-3-methyl-piperidine-2-carboxylic acidhydroxyamide] | 200 to 1000 | < 10 | 10000 to 20000 | < 10 |  | 
CNC(=O)N1CCN(S(=O)(=O)c2ccc(OCc3ccc(F)cc3F)cc2)[C@@H](C(=O)NO)[C@@H]1C [(2R,3S) 4-[4-(2,4-difluoro-benzyloxy)-benzenesulfonyl]-3-methyl-4-carboxylic acidmethylamide-piperazine-2-carboxylic acidhydroxyamide] | 200 to 1000 | 10 to 20 | 10000 to 20000 | < 10 |  | 
Cc1c(F)cccc1COc1ccc(S(=O)(=O)N2CCC[C@@](C)(O)[C@@H]2C(=O)NO)cc1 [(2R,3R) 1-[4-(2-methyl-3-fluorobenzyloxy)-benzenesulfonyl]-3-hydroxy-3-methyl-piperidine-2-carboxylic acidhydroxyamide] | > 1000 | 10 to 20 | < 10000 | < 10 |  | 
Cc1ccc(F)cc1COc1ccc(S(=O)(=O)N2CCC[C@@](C)(O)[C@@H]2C(=O)NO)cc1 [(2R,3R) 1-[4-(2-methyl-5-fluorobenzyloxy)-benzenesulfonyl]-3-hydroxy-3-methyl-piperidine-2-carboxylic acidhydroxyamide] |  | 10 to 20 | < 10000 | < 10 |  | 
C[C@@]1(O)CCCN(S(=O)(=O)c2ccc(OCc3ccccc3F)cc2)[C@H]1C(=O)NO [(2R,3R) 1-[4-(2-fluoro-benzyloxy)-benzenesulfonyl]-3-hydroxy-3-methyl-piperidine-2-carboxylic acidhydroxyamide] | 20 to 200 | 10 to 20 | 20000 to 40000 |  |  | 
Cc1cc(F)ccc1COc1ccc(S(=O)(=O)N2CCC[C@@](C)(O)[C@@H]2C(=O)NO)cc1 [(2R,3R) 1-[4-(4-fluoro-2-methyl-benzyloxy)-benzenesulfonyl]-3-hydroxy-3-methyl-piperidine-2-carboxylic acidhydroxyamide] |  | < 10 | < 10000 | < 10 |  | 
C[C@@]1(O)CCCN(S(=O)(=O)c2ccc(OCc3ccccc3Cl)cc2)[C@H]1C(=O)NO [(2R,3R) 1-[4-(2-chloro-benzyloxy)-benzenesulfonyl]-3-hydroxy-3-methyl-piperidine-2-carboxylic acidhydroxyamide] |  | < 10 | < 10000 | < 10 |  | 
